How the values were obtained:
[1] = target: IKKε (Homo sapiens (Human), UniProt Q14164); test: TR-FRET kinase assay, IKKε; format: biochemical; conditions: full length recombinant IKKε 0.3 nM, 2x Km ATP, 1 μM peptide, 240 min at 25° C.; geometric mean of minimum four determinations
Source text: Biological Assay for TBK1 and IKKs:

[2] = target: TBK1 (Homo sapiens (Human), UniProt Q9UHD2); test: TR-FRET kinase assay, TBK1; conditions: read-out: TBK1-IC50; full length recombinant TBK1 2.5 nM, 2x Km ATP, 1 μM peptide, 240 min at 25° C.; geometric mean of minimum four determinations
TBK1, sequence (Q9UHD2 whole entry): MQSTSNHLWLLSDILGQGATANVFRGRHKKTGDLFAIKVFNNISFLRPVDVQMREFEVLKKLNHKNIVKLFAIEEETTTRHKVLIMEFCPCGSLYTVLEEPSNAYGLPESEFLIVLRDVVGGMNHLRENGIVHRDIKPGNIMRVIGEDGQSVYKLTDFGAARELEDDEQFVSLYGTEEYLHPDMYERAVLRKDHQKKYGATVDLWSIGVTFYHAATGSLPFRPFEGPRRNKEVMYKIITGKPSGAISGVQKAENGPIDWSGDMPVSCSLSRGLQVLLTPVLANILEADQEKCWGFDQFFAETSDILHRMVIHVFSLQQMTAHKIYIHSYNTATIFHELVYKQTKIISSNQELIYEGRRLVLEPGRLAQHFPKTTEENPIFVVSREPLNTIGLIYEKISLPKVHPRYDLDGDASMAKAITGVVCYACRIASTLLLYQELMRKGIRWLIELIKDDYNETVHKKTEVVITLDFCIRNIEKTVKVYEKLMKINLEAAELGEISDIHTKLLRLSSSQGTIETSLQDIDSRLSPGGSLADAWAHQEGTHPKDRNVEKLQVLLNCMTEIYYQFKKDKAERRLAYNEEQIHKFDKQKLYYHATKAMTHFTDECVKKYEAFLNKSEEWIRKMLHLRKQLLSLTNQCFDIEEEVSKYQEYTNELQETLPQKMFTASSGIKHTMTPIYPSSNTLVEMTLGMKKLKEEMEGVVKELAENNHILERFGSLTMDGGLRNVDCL

IKKε, sequence (Q14164 whole entry): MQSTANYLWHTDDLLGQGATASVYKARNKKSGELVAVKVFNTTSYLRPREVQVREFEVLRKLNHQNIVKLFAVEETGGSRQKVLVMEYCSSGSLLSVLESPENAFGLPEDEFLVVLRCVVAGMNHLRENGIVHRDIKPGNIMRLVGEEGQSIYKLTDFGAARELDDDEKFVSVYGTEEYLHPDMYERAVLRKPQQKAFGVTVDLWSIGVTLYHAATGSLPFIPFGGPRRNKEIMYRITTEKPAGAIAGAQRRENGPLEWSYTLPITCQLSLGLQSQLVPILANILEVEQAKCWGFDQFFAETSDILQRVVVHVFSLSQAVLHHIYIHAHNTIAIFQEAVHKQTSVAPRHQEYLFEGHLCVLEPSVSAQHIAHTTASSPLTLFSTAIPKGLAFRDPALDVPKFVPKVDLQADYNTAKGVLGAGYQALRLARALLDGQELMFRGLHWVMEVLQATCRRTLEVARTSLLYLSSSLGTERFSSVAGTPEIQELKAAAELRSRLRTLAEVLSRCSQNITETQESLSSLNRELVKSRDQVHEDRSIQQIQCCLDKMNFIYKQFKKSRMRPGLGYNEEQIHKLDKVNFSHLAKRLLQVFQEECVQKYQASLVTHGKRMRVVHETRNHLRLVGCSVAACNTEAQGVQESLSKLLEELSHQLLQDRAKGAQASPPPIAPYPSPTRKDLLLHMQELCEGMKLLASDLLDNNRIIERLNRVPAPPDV

Compound N#Cc1cc(-c2ccnc3[nH]c(-c4cccc(CN5CCOCC5)c4)cc23)ccc1OC1CCOCC1 [Example 39, 5-(2-(3-(morpholinomethyl)phenyl)-1H-pyrrolo[2,3-b]pyridin-4-yl)-2-((tetrahydro-2H-pyran-4-yl)oxy)benzonitrile] has an IC50 [1] of 10.7 nM and an IC50 [2] of 10.1 nM.
Compound N#Cc1cc(-c2ncnc3[nH]c(-c4ccc(N5CCOCC5)c(F)c4)nc23)ccc1OC1CCN(C(=O)CO)CC1 [Example 241, 5-(8-(3-fluoro-4-morpholinophenyl)-9H-purin-6-yl)-2-((1-(2-hydroxyacetyl)piperidin-4-yl)oxy)benzonitrile] has an IC50 [1] of 2.64 nM and an IC50 [2] of 1.3 nM.
Work on COc1cc(-c2cc3c(-c4ccc(N5CC[C@@H](O)C5)c(C#N)c4)ncnc3[nH]2)ccc1N1CCN(C2COC2)CC1 [Example 142, (R)-2-(3-hydroxypyrrolidin-1-yl)-5-(6-(3-methoxy-4-(4-(oxetan-3-yl)piperazin-1-yl)phenyl)-7H-pyrrolo[2,3-d]pyrimidin-4-yl)benzonitrile] yielded an IC50 [1] of 14.7 nM and an IC50 [2] of 2.03 nM.
Compound CC1(C)C(=O)Nc2cc(-c3cc4c(-c5ccc(OC6CCOCC6)c(C#N)c5)ccnc4[nH]3)ccc21 [Example 76, 5-(2-(3,3-dimethyl-2-oxoindolin-6-yl)-1H-pyrrolo[2,3-b]pyridin-4-yl)-2-((tetrahydro-2H-pyran-4-yl)oxy)benzonitrile] has an IC50 [1] of over 1000 nM and an IC50 [2] of 5.76 nM.
Compound COC(C)(C)c1ccc(-c2cc3c(-c4cc(C#N)c(OC5CCOCC5)cn4)ccnc3[nH]2)cc1 [Example 169, 2-(2-(4-(2-Methoxypropan-2-yl)phenyl)-1H-pyrrolo[2,3-b]pyridin-4-yl)-5-((tetrahydro-2H-pyran-4-yl)oxy)isonicotinonitrile] has an IC50 [1] of 13.2 nM and an IC50 [2] of 4.8 nM.
Work on N#Cc1cc(-c2ccnc3[nH]c(C4CC4)cc23)ccc1OC1CCOCC1 [Example 50, 5-(2-cyclopropyl-1H-pyrrolo[2,3-b]pyridin-4-yl)-2-((tetrahydro-2H-pyran-4-yl)oxy)benzonitrile] yielded an IC50 [1] of 449 nM and an IC50 [2] of 651 nM.
Compound CC(C)(O)c1ccc(-c2cc3c(-c4ccc(O[C@@H]5CCN(C(=O)CO)C5)c(C#N)c4)ccnc3[nH]2)cc1 [Example 149, (R)-2-((1-(2-hydroxyacetyl)pyrrolidin-3-yl)oxy)-5-(2-(4-(2-hydroxypropan-2-yl)phenyl)-1H-pyrrolo[2,3-b]pyridin-4-yl)benzonitrile] has an IC50 [1] of 2.27 nM and an IC50 [2] of 1.54 nM.
For N#Cc1cc(-c2ccnc3[nH]c(-c4ccc(N5CCOCC5)cc4)cc23)ccc1O[C@H]1CCNC1 [Example 22, (S)-5-(2-(4-morpholinophenyl)-1H-pyrrolo[2,3-b]pyridin-4-yl)-2-(pyrrolidin-3-yloxy)benzonitrile], the IC50 [1] was 132 nM and the IC50 [2] was 39.6 nM.
Work on CC(C)(C)OC(=O)N1CC[C@@H](Oc2ccc(-c3ccnc4[nH]c(-c5ccc(N6CCOCC6)cc5)cc34)cc2C#N)C1 [Example 17, (R)-tert-butyl 3-(2-cyano-4-(2-(4-morpholinophenyl)-1H-pyrrolo[2,3-b]pyridin-4-yl)phenoxy)pyrrolidine-1-carboxylate] yielded an IC50 [1] of 394 nM and an IC50 [2] of 146 nM.
Work on N#Cc1cc(-c2c(F)cnc3[nH]c(-c4ccc(N5CCOCC5)cc4)cc23)ccc1OC1CCOCC1 [Example 47, 5-(5-fluoro-2-(4-morpholinophenyl)-1H-pyrrolo[2,3-b]pyridin-4-yl)-2-((tetrahydro-2H-pyran-4-yl)oxy)benzonitrile] yielded an IC50 [1] of 17.5 nM and an IC50 [2] of 4.05 nM.
Work on CN1CCN(C(=O)c2ccc(-c3cc4c(-c5ccc(OC6CCOCC6)c(C#N)c5)ncnc4[nH]3)cc2)CC1 [Example 187, 5-(6-(4-(4-methylpiperazine-1-carbonyl)phenyl)-7H-pyrrolo[2,3-d]pyrimidin-4-yl)-2-((tetrahydro-2H-pyran-4-yl)oxy)benzonitrile] yielded an IC50 [1] of 1.88 nM and an IC50 [2] of 1.16 nM.
With CS(=O)(=O)N1CCC(Oc2ccc(-c3ncnc4[nH]c(-c5ccc(N6CCOCC6)cc5)nc34)cc2C#N)CC1 [Example 253, 2-((1-(methylsulfonyl)piperidin-4-yl)oxy)-5-(8-(4-morpholinophenyl)-9H-purin-6-yl)benzonitrile] the IC50 [1] was 39.8 nM and the IC50 [2] was 19.8 nM.
N#Cc1cc(-c2ccnc3[nH]c(-c4ccc(N5CCOCC5)cc4)nc23)ccc1O[C@@H]1CCNC1 [Example 195, (R)-5-(2-(4-morpholinophenyl)-3H-imidazo[4,5-b]pyridin-7-yl)-2-(pyrrolidin-3-yloxy)benzonitrile] showed an IC50 [1] of 62.3 nM and an IC50 [2] of 17.7 nM.
N#Cc1cc(-c2ncnc3[nH]c(-c4ccc(C5CCN(CC(F)F)CC5)cc4)nc23)ccc1OC1CCN(C=O)CC1 [Example 258, 5-(8-(4-(1-(2,2-difluoroethyl)piperidin-4-yl)phenyl)-9H-purin-6-yl)-2-((1-formylpiperidin-4-yl)oxy)benzonitrile] showed an IC50 [1] of 12.9 nM and an IC50 [2] of 6.4 nM.
N#Cc1cc(-c2ncnc3[nH]c(-c4ccc(N5CCOCC5)cc4)nc23)ccc1OCC1CC1 [Example 202, 2-(cyclopropylmethoxy)-5-(8-(4-morpholinophenyl)-9H-purin-6-yl)benzonitrile] was tested, and the IC50 [1] was over 1000 nM and the IC50 [2] was over 1000 nM.
Compound N#Cc1cc(-c2ccnc3[nH]c(-c4cnn(C5COC5)c4)cc23)ccc1OC1CCOCC1 [Example 6, 5-(2-(1-(oxetan-3-yl)-1H-pyrazol-4-yl)-1H-pyrrolo[2,3-b]pyridin-4-yl)-2-((tetrahydro-2H-pyran-4-yl)oxy)benzonitrile] has an IC50 [1] of 4.87 nM and an IC50 [2] of 3.13 nM.
With N#Cc1cc(-c2ccnc3[nH]c(-c4ccc(N5CCOCC5)cc4)cc23)ccc1O[C@H]1CCN(C(=O)CO)C1 [Example 23, (S)-2-((1-(2-hydroxyacetyl)pyrrolidin-3-yl)oxy)-5-(2-(4-morpholinophenyl)-1H-pyrrolo[2,3-b]pyridin-4-yl)benzonitrile] the IC50 [1] was 64.9 nM and the IC50 [2] was 16.2 nM.
In the case of N#Cc1cc(-c2ccnc3[nH]c(-c4ccc(N5CCOCC5)cc4)nc23)ccc1OC1CCNCC1 [Example 197, 5-(2-(4-morpholinophenyl)-3H-imidazo[4,5-b]pyridin-7-yl)-2-(piperidin-4-yloxy)benzonitrile], the IC50 [1] is reported as 109 nM and the IC50 [2] is reported as 29.1 nM.
With N#Cc1cc(-c2ccnc3[nH]c(-c4cc[nH]c(=O)c4)cc23)ccc1OC1CCOCC1 [Example 217, 5-(2-(2-oxo-1,2-dihydropyridin-4-yl)-1H-pyrrolo[2,3-b]pyridin-4-yl)-2-((tetrahydro-2H-pyran-4-yl)oxy)benzonitrile] the IC50 [1] was 34.7 nM and the IC50 [2] was 19.3 nM.
In the case of N#Cc1cc(-c2ncnc3[nH]c(-c4ccc(C5CCN(CC(F)F)CC5)cc4)nc23)ccc1OC1CCN(C(=O)CO)CC1 [Example 255, 5-(8-(4-(1-(2,2-difluoroethyl)piperidin-4-yl)phenyl)-9H-purin-6-yl)-2-((1-(2-hydroxyacetyl)piperidin-4-yl)oxy)benzonitrile], the IC50 [1] is reported as 3.48 nM and the IC50 [2] is reported as 1.53 nM.
Work on N#Cc1cc(-c2ccnc3[nH]c(-c4cccc(N5CCOCC5)c4)cc23)ccc1OC1CCOCC1 [Example 78, 5-(2-(3-morpholinophenyl)-1H-pyrrolo[2,3-b]pyridin-4-yl)-2-((tetrahydro-2H-pyran-4-yl)oxy)benzonitrile] yielded an IC50 [1] of 40.1 nM and an IC50 [2] of 25.5 nM.
Compound CC(C)(C)OC(=O)N1CC[C@@H](Oc2ccc(-c3ncnc4[nH]c(-c5ccc(N6CCOCC6)cc5)nc34)cc2C#N)C1 [Example 206, (R)-tert-butyl 3-(2-cyano-4-(8-(4-morpholinophenyl)-9H-purin-6-yl)phenoxy)pyrrolidine-1-carboxylate] has an IC50 [1] of over 1000 nM and an IC50 [2] of over 1000 nM.
N#Cc1cc(-c2ncnc3[nH]c(-c4ccc(C5CCN(CC(F)F)CC5)cc4)nc23)ccc1OC1CCNCC1 [Example 260, 5-(8-(4-(1-(2,2-difluoroethyl)piperidin-4-yl)phenyl)-9H-purin-6-yl)-2-(piperidin-4-yloxy)benzonitrile] gave an IC50 [1] of 84.4 nM and an IC50 [2] of 26 nM.
With COc1ccc(C#N)cc1-c1ncnc2[nH]c(-c3ccc(N4CCOCC4)cc3)cc12 [Example 133, 4-methoxy-3-(6-(4-morpholinophenyl)-7H-pyrrolo[2,3-d]pyrimidin-4-yl)benzonitrile] the IC50 [1] was 1000 nM and the IC50 [2] was 1000 nM.
For N#Cc1cc(-c2ccnc3[nH]c(-c4ccc(N5CCOCC5)cc4)cc23)ccc1OCC1CC1 [Example 80, 2-(cyclopropylmethoxy)-5-(2-(4-morpholinophenyl)-1H-pyrrolo[2,3-b]pyridin-4-yl)benzonitrile], the IC50 [1] was over 1000 nM and the IC50 [2] was 16.8 nM.
Work on CC1(COc2ccc(-c3ccnc4[nH]c(-c5ccc(N6CCOCC6)cc5)cc34)cc2C#N)COC1 [Example 12, 2-((3-methyloxetan-3-yl)methoxy)-5-(2-(4-morpholinophenyl)-1H-pyrrolo[2,3-b]pyridin-4-yl)benzonitrile] yielded an IC50 [1] of 41 nM and an IC50 [2] of 14.1 nM.
With N#Cc1cc(-c2ncnc3[nH]c(-c4ccc(N5CCOCC5)c(F)c4)nc23)ccc1OC1CCNCC1 [Example 244, 5-(8-(3-fluoro-4-morpholinophenyl)-9H-purin-6-yl)-2-(piperidin-4-yloxy)benzonitrile] the IC50 [1] was 151 nM and the IC50 [2] was 35.8 nM.
Work on CN1CCN(c2ccc(-c3nc4c(-c5ccc(OC6CCN(C(=O)CO)CC6)c(C#N)c5)ncnc4[nH]3)cc2)CC1 [Example 251, 2-((1-(2-hydroxyacetyl)piperidin-4-yl)oxy)-5-(8-(4-(4-methylpiperazin-1-yl)phenyl)-9H-purin-6-yl)benzonitrile] yielded an IC50 [1] of 0.815 nM and an IC50 [2] of 0.883 nM.
For N#Cc1cc(-c2ccnc3[nH]c(-c4ccc(N5CCOCC5)cc4)cc23)ccc1OC1CCNCC1 [Example 18, 5-(2-(4-morpholinophenyl)-1H-pyrrolo[2,3-b]pyridin-4-yl)-2-(piperidin-4-yloxy)benzonitrile], the IC50 [1] was 33.2 nM and the IC50 [2] was 17.1 nM.
N#Cc1cc(-c2ccnc3[nH]c(-c4ccc(C(=O)C(F)(F)F)cc4)cc23)ccc1OC1CCOCC1 [Example 237, 2-((tetrahydro-2H-pyran-4-yl)oxy)-5-(2-(4-(2,2,2-trifluoroacetyl)phenyl)-1H-pyrrolo[2,3-b]pyridin-4-yl)benzonitrile] was tested, and the IC50 [1] was 29.7 nM and the IC50 [2] was 11.4 nM.

Source: patent US10072001B2, “Tank-binding kinase inhibitor compounds” (Gilead Sciences, Inc., priority 2014, dated 2018)
